What was measured:
[1] = Stability of pantetheine-4′-phosphate, pantetheine and pantethine (Example 4); conditions: 40° C. for 1 month; for amount of disulfide produced from the compound: alkaline condition (pH 8 and pH 9.5)
Description: Fifty mM sodium citrate buffer solutions (pH 3, 4, 5, and 6), a 50 mM sodium phosphate buffer solution (pH 7), and 50 mM tris-HCl buffer solutions (pH 8, 9.5) containing 0.1% (w/v) of pantetheine-4′-phosphate were prepared. Each 0.4 mL of the solutions was encapsulated in a 1 mL-glass ampule and heated at 40° C. for 1 month. Samples before and after the heating were analyzed by an HPLC to measure the content of pantetheine-4′-phosphate.

[2] = test system: LabCyte MELANO-MODEL, human skin three-dimensional model containing melanocytes; experiment: Melanin production inhibition test in human skin three-dimensional model; format: cell-based; conditions: for IC50: read-out: concentration at which melanin production inhibition rate reaches 50%, from plots in FIG. 5, kojic acid 0.1% = 100% inhibition, PBS = 0%
Description: The culture medium and the applied sample solution were exchanged every 2 or 3 days. After the completion of the culture, the percentage of viable cells was measured by an MTT (methylthiazole tetrazolium) assay. Further, a melanin amount was measured.
Melanin amount: The skin cells after the MTT assay were immersed in a reagent obtained by dissolving 1% SDS, 0.05 mM EDTA, and a 10 mM tris-HCl buffer solution (pH 7.2). 3 μL of a 5 mg/mL Proteinase K was added and the solution was heated in a water bath at 45° C. overnight to dissolve the skin. A 30% hydrogen peroxide solution and a 500 mM sodium carbonate solution were added thereto, the solution was mixed well and heated in a water bath at 80° C. for 30 min, and impurities were removed by chloroform/methanol (2/1). At the same time, melanin solutions were prepared by similar operations to prepare a calibration curve, and a melanin amount in the cultured skin cells was determined.

[3] = pH stability of barium pantethine-4′,4″-diphosphate, pantethine and calcium pantetheine-5-sulfonate (Example 1); conditions: 0.1% (w/v) in 50 mM buffer, 40° C. for 6 months, diphosphate tested as barium salt
Description: Sodium citrate buffer solutions were used as buffer solutions at pH 3, 4, 5 and 6. Sodium phosphate buffer solutions were used as buffer solutions at pH 6.5 and 7. Tris-HCl buffer solutions were used as buffer solutions at pH 8 and 9.5.

[4] = pH stability of pantethine-4′,4″-diphosphate, pantethine-4′-phosphate and pantethine (Example 2); format: physicochemical; conditions: pH 4 or lower, or pH 7 or higher; 0.1% (w/v) in 50 mM buffer, 40° C. for 3 months; diphosphate tested as sodium salt
[5] = ratio of 50% inhibition concentrations

Molecule: CC(C)(COP(=O)(O)O)[C@@H](O)C(=O)NCCC(=O)NCCS [pantetheine-4′-phosphate]
- amount of disulfide produced from the compound [1]: did not decrease
- stability (content by HPLC before and after heating) ([1]; pH 3 and 4, 0.1% (w/v) in 50 mM buffer): improved from pantetheine
- stability: oxidation to the disulfide ([1]; pH 5 or higher, 0.1% (w/v) in 50 mM buffer): oxidized and changed to pantethine-4′,4″-diphosphate
- stability: remaining compound ([1]; pH 7 or higher, 0.1% (w/v) in 50 mM buffer): neither the pantetheine-4′-phosphate nor pantetheine remained

Molecule: O=C1O[C@H]([C@@H](O)CO)C(O)=C1OP(=O)(O)O [sodium ascorbyl-2-phosphate]
- IC50 ([2]; culture for 2 weeks): 54 mM

Molecule: CC(C)(CO)[C@@H](O)C(=O)NCCC(=O)NCCS [pantetheine]
- amount of disulfide produced from the compound [1]: decrease in the amount of pantethine produced

Molecule: CC(C)(CO)[C@@H](O)C(=O)NCCC(=O)NCCSS(=O)(=O)[O-].CC(C)(CO)[C@@H](O)C(=O)NCCC(=O)NCCSS(=O)(=O)[O-].[Ca+2] [calcium pantetheine-5-sulfonate]
- stability (content by HPLC before and after heating) ([3]; between pH 5 and 6): stable
- stability (content by HPLC before and after heating) ([3]; pH 4 or lower, or pH 6.5 or higher): clearly degraded

Molecule: O=c1cc(CO)occ1O [kojic acid]
- melanin production amount, relative to the case where only PBS was added ([2]; 0.1% (7 mM), culture for 2 weeks): 30%

Molecule: pantethine-4′,4″-di-β-galactoside
- IC50 ([2]; culture for 2 weeks): 77 mM

Molecule: CC(C)(COP(=O)(O)O)[C@@H](O)C(=O)NCCC(=O)NCCSSCCNC(=O)CCNC(=O)[C@H](O)C(C)(C)COP(=O)(O)O [Pantethine-4′,4″-diphosphate, pantethine-4′,4″-diphosphate]
- stability (content by HPLC before and after heating) [4]: stable

Molecule: sodium pantethine-4′,4″-diphosphate
- whitening activity relative to pantethine [2, 5]: 1.7 fold
- whitening activity relative to sodium ascorbyl-2-phosphate [2, 5]: 17 times
- IC50 ([2]; culture for 2 weeks): 3.1 mM
